Source: US20230346670A1, “Prebiotic Oral Care Compositions and Methods” (Colgate-Palmolive Company, priority 2020, published 2023)
Marks after values point to notes of the source that are not given here.

Legend:
Type in all cases: cell-based
[1] = system: P. gingivalis virulence genes; assay: Virulence gene expression in multi-species biofilm (SYBR RT-qPCR); settings: relative to control, 2^-ΔΔCt, n = 3
Description: (§1) Biofilms are grown vertically on Calcium Deficient Hydroxyapatite (CAD-HA) disks (Hitemco Medical, Old Bethpage, USA) using the Amsterdam Active Adhesion model. Biofilms are allowed to establish during 24 h (37° C., 170 rpm) under microaerophilic conditions (6% O2, 7% CO2, 7% H2, 80% N2). After this 24 h, disks are rinsed 3 times a day for 3 minutes (RT, 250 rpm), for 3 consecutive days, by transferring the lid containing the disks to a new 24-well plate containing 2 mL/well of the appropriate substrate solution. As a negative control, PBS (pH 5.7) without substrate supplementation is used.
(§2) The virulence of the substrate-treated multi-species biofilms are evaluated by analyzing the relative expression of 33 genes that are recognized as being related to some form of virulence and from 4 periodontal pathogens.
(§3) Expression of bacterial virulence genes is analyzed through SYBR RT-qPCR and normalized for bacterial housekeeping gene expression. […] These effects are illustrated in Tables 6a and 6b:
(§4) Note, for Tables 6a and 6b, that fold changes in virulence gene expression are determined relative to the control condition through the 2^^-ΔΔCt method and are shown as the geometric mean (C.I.) (n = 3) of the 2^^-ΔΔ ^Ct values. All substrates are dissolved in PBS at a concentration of 1 M (upper part) or 1%(w/v) (lower part). Values between 0 and 1 represent relative downregulation, values >1 represent relative upregulation. […] NADG: N-acetyl-D-glucosamine; C.I.: 95% confidence interval.

[2] = system: A. actinomycetemcomitans virulence genes; assay: as above
Description: as §1, §2, §3, §4

[3] = system: human oral keratinocytes (HOK-18A); assay: Inflammatory mediator gene expression in keratinocytes exposed to substrate-treated biofilms (SYBR RT-qPCR); settings: relative to control, n = 3
Description: Cultures of immortalized human oral keratinocytes (HOK-18A) are grown. […] The IL-8 levels in the cellular supernatant are determined as well. RNA is converted to cDNA and relative expression of inflammatory mediator genes is determined as described above with respect to the cellular housekeeping gene β-actin.
In HOKs exposed to substrate-treated (substrate concentrations of […]) multi-species biofilms, there are mostly decreases in inflammatory mediator gene expression as measured via SYBR RT-qPCR, the results of which are detailed in Table 7:
Fold changes in inflammatory mediator gene expression from human oral keratinocytes (HOK-18A) exposed to substrate-treated multi-species biofilms are determined relatively to the control through the 2^^-ΔΔCt method and are shown as the geometric mean (C.I.) (n = 3) of the 2^^-ΔΔCt values. All substrates are dissolved in PBS at a concentration of 1 M (upper part) or 1%(w/v) (lower part). Values between 0 and 1 represent relative downregulation, values >1 represent relative upregulation.

[4] = system: P. intermedia virulence genes; assay: Virulence gene expression in multi-species biofilm (SYBR RT-qPCR); settings: for fold change in DnaJ expression, geometric mean (95% C.I.) / fold change in DnaK expression, geometric mean (95% C.I.) / fold change in ECF expression, geometric mean (95% C.I.) / fold change in GroES expression, geometric mean (95% C.I.) / fold change in HtpG expression, geometric mean (95% C.I.) / fold change in KpsD expression, geometric mean (95% C.I.) / fold change in adpc expression, geometric mean (95% C.I.) / fold change in clpB expression, geometric mean (95% C.I.) / fold change in inpA expression, geometric mean (95% C.I.) / fold change in phg expression, geometric mean (95% C.I.): relative to control = 1
Description: as §1, §2, §3
as §4, with “for Table 6d,” for “for Tables 6a and 6b, that”, “determined relatively” for “determined relative”, “the 2^^-ΔΔCt” for “the 2^^-ΔΔ ^Ct”

[5] = lower part of Table 6a, substrate 1%(w/v), relative to control = 1
[6] = substrate 1 M, relative to control = 1, 2^-ΔΔCt, n = 3
[7] = HOK-18A exposed to biofilms treated with substrate 1% (w/v)
[8] = HOK-18A exposed to biofilms treated with substrate 1 M
[9] = lower part of Table 6d, head prints 1 M (lower part 1%(w/v))
[10] = upper part of Table 6d, substrate 1 M, n = 3

## OC[C@H]1O[C@H](OC[C@H]2O[C@H](O[C@]3(CO)O[C@H](CO)[C@@H](O)[C@@H]3O)[C@H](O)[C@@H](O)[C@@H]2O)[C@H](O)[C@@H](O)[C@H]1O [D-raffinose, D-(+)-raffinose]
[1]; substrate 1 % (w/v)
  fold change in fimA expression, geometric mean (95% C.I.): 1.47 (0.92-2.34) fold
  fold change in kgp expression, geometric mean (95% C.I.): 1.77 (0.74-4.21) fold
  fold change in partC expression, geometric mean (95% C.I.): 0.54 (0.26-1.12) fold
  fold change in rgpA expression, geometric mean (95% C.I.): 1.42 (1.12-1.80) fold
[1]; substrate 1 M
  fold change in fimA expression, geometric mean (95% C.I.): 0.03 (0.00-0.16)* fold
  fold change in kgp expression, geometric mean (95% C.I.): <LOD
  fold change in partC expression, geometric mean (95% C.I.): 0.02 (0.00-0.12)^∗ fold
  fold change in rgpA expression, geometric mean (95% C.I.): 0.01 (0.00-0.10)^∗ fold
[2]; [5]
  fold change in aae expression, geometric mean (95% C.I.): 1.34 (0.38-4.68) fold
  fold change in apaH expression, geometric mean (95% C.I.): 0.91 (0.48-1.73) fold
  fold change in cdtB expression, geometric mean (95% C.I.): 0.73 (0.16-3.39) fold
  fold change in emaA expression, geometric mean (95% C.I.): 0.59 (0.13-2.77) fold
  fold change in flp expression, geometric mean (95% C.I.): 0.89 (0.40-1.99) fold
  fold change in ltxA expression, geometric mean (95% C.I.): 0.30 (0.12-0.79) fold
  fold change in omp29 expression, geometric mean (95% C.I.): 0.87 (0.26-2.87) fold
  fold change in omp100 expression, geometric mean (95% C.I.): 0.31 (0.09-1.08)^∗ fold
  fold change in orf859 expression, geometric mean (95% C.I.): 1.66 (0.86-3.20) fold
  fold change in pgA expression, geometric mean (95% C.I.): 0.99 (0.38-2.55) fold
  fold change in vapA expression, geometric mean (95% C.I.): 1.14 (0.40-3.20) fold
  fold change in vppA expression, geometric mean (95% C.I.): 1.08 (0.53-2.18) fold
[2]; [6]
  fold change in aae expression, geometric mean (95% C.I.): 0.16 (0.05-0.47)^∗ fold
  fold change in apaH expression, geometric mean (95% C.I.): 0.11 (0.02-0.73)^∗ fold
  fold change in cdtB expression, geometric mean (95% C.I.): 0.07 (0.02-0.25)^∗ fold
  fold change in emaA expression, geometric mean (95% C.I.): 0.09 (0.03-0.29)^∗ fold
  fold change in flp expression, geometric mean (95% C.I.): 0.45 (0.17-1.22) fold
  fold change in ltxA expression, geometric mean (95% C.I.): 0.01 (0.01-0.03)^∗ fold
  fold change in omp29 expression, geometric mean (95% C.I.): 1.37 (0.34-5.47) fold
  fold change in omp100 expression, geometric mean (95% C.I.): 0.09 (0.02-0.43)^∗ fold
  fold change in orf859 expression, geometric mean (95% C.I.): 0.02 (0.01-0.05)^∗ fold
  fold change in pgA expression, geometric mean (95% C.I.): 7.26 (2.09-25.17)^∗ fold
  fold change in vapA expression, geometric mean (95% C.I.): 0.50 (0.13-1.94) fold
  fold change in vppA expression, geometric mean (95% C.I.): 0.05 (0.04-2.42)^∗ fold
[2]; substrate 1 M, relative to control = 1, 2^-ΔΔCt, n = 3, listed as D-(+)-raffinose
  fold change in pgA expression, geometric mean (95% C.I.): 7.3 fold
[3]; [7]
  fold change in IL-1β gene expression, geometric mean (C.I.): 0.93 (0.56-1.55) fold
  fold change in IL-6 gene expression, geometric mean (C.I.): 0.70 (0.44-1.13)^∗ fold
  fold change in IL-8 gene expression, geometric mean (C.I.): 1.08 (0.73-1.59) fold
  fold change in MMP-8 gene expression, geometric mean (C.I.): 0.71 (0.38-1.35) fold
  fold change in TNF-α gene expression, geometric mean (C.I.): 0.77 (0.55-1.08) fold
[3]; [8]
  fold change in IL-1β gene expression, geometric mean (C.I.): 0.8 (0.44-1.46) fold
  fold change in IL-6 gene expression, geometric mean (C.I.): 0.54 (0.17-1.72) fold
  fold change in IL-8 gene expression, geometric mean (C.I.): 0.10 (0.04-0.29)^∗ fold
  fold change in MMP-8 gene expression, geometric mean (C.I.): 0.85 (0.61-1.19) fold
  fold change in TNF-α gene expression, geometric mean (C.I.): 0.66 (0.56-0.78)^∗ fold
[4]; [9]
  fold change in DnaJ expression, geometric mean (95% C.I.): 1.56 (0.59-4.12) fold
  fold change in DnaK expression, geometric mean (95% C.I.): 1.76 (0.61-5.06) fold
  fold change in ECF expression, geometric mean (95% C.I.): 0.96 (0.56-1.64) fold
  fold change in GroES expression, geometric mean (95% C.I.): 0.98 (0.24-4.05) fold
  fold change in HtpG expression, geometric mean (95% C.I.): 0.67 (0.43-1.04) fold
  fold change in KpsD expression, geometric mean (95% C.I.): 0.90 (0.58-1.40) fold
  fold change in adpc expression, geometric mean (95% C.I.): 0.85 (0.23-3.13) fold
  fold change in clpB expression, geometric mean (95% C.I.): 1.13 (0.86-1.48) fold
  fold change in inpA expression, geometric mean (95% C.I.): 0.98 (0.64-1.52) fold
  fold change in phg expression, geometric mean (95% C.I.): 0.73 (0.33-1.63) fold
[4]; substrate 1% (w/v)
  impact on P. intermedia virulence gene expression: limited impact
[4]; substrate 1 M
  downregulation of P. intermedia virulence gene expression: 3 fold
[4]; [10]
  fold change in DnaJ expression, geometric mean (95% C.I.): 1.76 (0.92-3.37) fold
  fold change in DnaK expression, geometric mean (95% C.I.): 10.07 (6.81-14.89)^∗ fold
  fold change in ECF expression, geometric mean (95% C.I.): 6.74 (1.96-23.20)^∗ fold
  fold change in GroES expression, geometric mean (95% C.I.): 10.59 (4.96-22.60)^∗ fold
  fold change in HtpG expression, geometric mean (95% C.I.): 1.90 (0.99-3.67)^∗ fold
  fold change in KpsD expression, geometric mean (95% C.I.): 1.78 (0.71-4.45) fold
  fold change in adpc expression, geometric mean (95% C.I.): 1.02 (0.40-2.60) fold
  fold change in clpB expression, geometric mean (95% C.I.): 2.21 (1.53-3.21) fold
  fold change in inpA expression, geometric mean (95% C.I.): 1.39 (0.67-2.90) fold
  fold change in phg expression, geometric mean (95% C.I.): 0.33 (0.21-0.50)^∗ fold
